Reference: patent US20260097022A1, “COMPOUNDS AND USES THEREOF” (Integrated Biosciences, Inc., priority 2023, published 2026)
pIC50: −log10 of the molar value.

Assays:
[1] = cited from earlier work
human red blood cells = assay: Hemolysis assay; format: cell-based
Procedure: Hemolysis assay. Whole human blood containing EDTA (Innovative Resarch IWB1K2E) was centrifuged at 120×g at 4° C., for 5 min and resuspended in Dulbecco's PBS (DPBS: VWR 02-0119-0500). These washing steps were repeated until the supernatant was clear. Red blood cells were then resuspended in DPBS to 5×10^8 cells/mL, and 100 μL of cells was plated into each well of a 96-well clear round-bottom plate. Compounds were added to the indicated concentrations, and DMSO was used as a vehicle. Samples were incubated for 1 h at 37° C., without shaking, after which plates were centrifuged at 1500×g at room temperature for 5 min to pellet cells. 60 μL of the supernatant from each sample was then transferred to a 96-well clear flat-bottom plate, and the absorbance was read at 405 nm using a SpectraMax M3 plate reader to quantify the amount of soluble hemoglobin. Fractional hemolysis was determined by linearly interpolating absorbance values with respect to a positive control (saturation with 10% Triton X-100) and a negative control (1% DMSO vehicle). Results are depicted in FIG. 14.

HepG2 cells = assay: Cytotoxicity against HepG2 cells (resazurin); format: cell-based, human; settings: 3 days treatment; curve-fitting, two biological replicates
Procedure: (§1) Measuring cytotoxicity against HepG2 and HEK293 cells. Cytotoxicity in human embryonic kidney (HEK293) and liver carcinoma (HepG2) cells was assayed as above using a resazurin assay. Cells were obtained from ATCC (ATCC CRL-1573 and HB-8065), passaged <10 times, and grown in Dulbecco's modification of Eagle's Medium (DMEM: Corning 10^−013-CV) supplemented with 10% FBS and 1% penicillin-streptomycin. 99 μL of cells were plated into each well of a 96-well clear flat-bottom, black polystyrene tissue-culture-treated plate at a density of ˜10+ cells/well, and plates were incubated overnight for adhesion. The day after plating. 1 μL of each compound, prepared as two-fold serial dilutions of 5 mM stock solutions in DMSO, was added to each well. Cells were incubated for 3 days, after which resazurin was added to each well to a final concentration of 0.15 mM. After an additional 1 day of incubation, the fluorescence excitation/emission at 550/590 nm was read using a SpectraMax M3 plate reader. Experiments were performed in biological duplicate. IC50 values were determined by normalizing with respect to the fluorescence intensity values of untreated control cells on day 3, as described in Calculation of cellular viability values in dose-response curves above.

primary human T-cells = assay: Cytotoxicity to T-cells in vitro; format: cell-based; settings: for T-cell death: at about 0.1 μM; for pIC50: primary human T-cells, read-out: T-cell cytotoxicity IC50
[2] = tested on: Salmonella typhimurium TA100; assay: Genotoxicity assay (Ames 384-ISO test); format: cell-based; settings: 100 μM
Procedure: Genotoxicity assay. An Ames 384-ISO test (6041-1S) from Environmental Bio-Detection Products, Inc, was used following the manufacturer's instructions. Briefly. Salmonella typhimurium TA100 was grown overnight (16-18 h) at 37° C., with shaking at 300 rpm and treated with the provided exposure media and compound samples at the final concentrations indicated. Treatment with the provided 4-nitroquinoline 1-oxide (4NQO), a mutagen, was used as a positive control. Cells were then added to the provided reversion solution, and each sample was split into 48 wells of 384-well plates. Plates were incubated at 37° C., for 2 days, after which the number of revertant (yellow-colored) wells corresponding to each sample was counted. […] An overnight bacterial culture was diluted 1:10.000 in LB medium (Becton Dickinson 244620) and plated using 99 μL working volumes into the wells of a clear flat-bottom 96-well plate. One μL of two-fold dilutions of each test compound in DMSO, starting from a final concentration of 500 μM, was added across wells, and plates were sealed and incubated overnight at 37° C., to determine bacterial growth.

HEK293 cells = assay: Cytotoxicity against HEK293 cells (resazurin); format: cell-based, human; settings: 3 days treatment; curve-fitting, two biological replicates
Procedure: as §1

[3] = tested on: etoposide-treated IMR-90 cells; assay: Etoposide-induced senescence model, resazurin cell viability (screen and dose-response); format: cell-based, human; settings: for senolytic activity in screen: 3 days; for Therapeutic Index (TI): etoposide-induced senescence model, ratio of IC50 values between etoposide- and DMSO-treated IMR-90 fibroblasts
Outline: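 IMR-90 fibroblasts made senescent with 50 μM etoposide for 2 days, then 4 days recovery before plating. Compounds at 10 μM or 1 μM final (screen) or three-fold dilutions (1% DMSO) for 3 days, then 0.15 mM resazurin 1 day, fluorescence 550/590 nm. Viability expressed as fraction of untreated controls; biological duplicates.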

[4] = Phase II, lung carcinoma; cited from earlier work
Mcl-1 = Mcl-1 (Homo sapiens, UniProt Q07820); assay: Mcl-1 TR-FRET; format: binding
Chain of Mcl-1 (Q07820 whole entry, species assumed): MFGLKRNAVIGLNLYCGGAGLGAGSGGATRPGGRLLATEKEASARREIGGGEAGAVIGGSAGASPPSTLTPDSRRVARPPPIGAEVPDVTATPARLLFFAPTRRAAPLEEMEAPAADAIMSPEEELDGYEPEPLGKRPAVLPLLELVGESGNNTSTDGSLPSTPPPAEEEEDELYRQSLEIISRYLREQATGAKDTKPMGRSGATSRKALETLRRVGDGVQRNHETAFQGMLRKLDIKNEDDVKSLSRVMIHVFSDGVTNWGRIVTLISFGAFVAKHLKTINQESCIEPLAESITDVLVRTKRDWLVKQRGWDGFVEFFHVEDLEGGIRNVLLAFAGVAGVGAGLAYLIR

[5] = Cytotoxicity to T-cells in vitro; format: cell-based, human; settings: human, primary human T-cells; read-out: T-cell cytotoxicity IC50
ex vivo human skin = assay: Ex vivo aged human skin model
Procedure: IBX-100 was first tested in ex vivo skin for safety.
IBX-100 was further tested in ex vivo skin for efficacy, p16 mRNA expression was measured after 5 days of topical application of IBX-100 on an older subject (e.g. Person, Fitzpatrick type 2) skin, and compared to vehicle values.

[6] = tested on: wounded ex vivo human skin; assay: Ex vivo wounded skin model
Procedure: For the younger skin sample, RNA expression levels of collagen (Col1a1) and matrix metallopeptidase 9 (MMP9) were additionally measured. Higher levels of Col1a1 may be associated with senescence and scarring.
IBX-100 was tested again for safety in a combination dosing regimen. IBX-100 was formulated as a 10% solution in 100% DMSO and applied directly by pipetting 5 μL on wounded younger skin (e.g. Person, Fitzpatrick type 2-3). Additionally, IBX-100 was administered to the culture medium at a final concentration of about 100 μg/mL, by adding 1 μL of a 100 mg/mL solution in DMSO to 1 mL of culture media, as a model of systemic administration.
To test efficacy. IBX-100 was applied both topically and systemically as described above every 24 h for 5 days. On day 6, the skin biopsies were excised, and p16. Col1a1, and MMP9 RNA expression was measured inside each wound. Compared to vehicle (e.g., DMSO) values, p16. Col1a1, and MMP9 expression was decreased, on average, by ˜30%. ˜ 60%, and ˜60%, respectively, with administration of IBX-100 (FIG. 19).

[7] = 10 μM, active: control viability >0.5, Snc/control ratio <0.7
[8] = topical and systemic every 24 h for 5 days, day 6

## O=c1c(O)c(-c2ccc(O)c(O)c2)oc2cc(O)ccc12 [fisetin]
[1]
  bioavailability: limited bioavailability

## CN(C)CC[C@H](CSc1ccccc1)Nc1ccc(S(=O)(=O)NC(=O)c2ccc(N3CCN(Cc4ccccc4-c4ccc(Cl)cc4)CC3)cc2)cc1[N+](=O)[O-] [ABT-737, reference compound]
Human red blood cells; up to a final concentration of 100 μM, 1 h at 37° C.
  hemolysis: did not induce significant hemolysis
HepG2 cells
  pIC50: 3.88
Primary human T-cells
  T-cell death: substantial cell death
  pIC50: ~6.00
[1]
  bioavailability: limited bioavailability
[2]
  reversion of bacterial cultures (mutagenic potential): did not induce significant reversion
HEK293 cells
  pIC50: 4.54
[3]; 1 μM
  senolytic activity in screen: inactive
[3]; [7]
  senolytic activity in screen: active

## CC1(C)CCC(c2ccc(Cl)cc2)=C(CN2CCN(c3ccc(C(=O)NS(=O)(=O)c4ccc(N[C@H](CCN5CCOCC5)CSc5ccccc5)c(S(=O)(=O)C(F)(F)F)c4)cc3)CC2)C1 [ABT-263]
[4]
  side effects in patients: thrombocytopenia and neutropenia were common side effects
Primary human T-cells
  T-cell death: substantial cell death
  pIC50: ~6.00
[3]; 1 μM
  senolytic activity in screen: inactive
[3]; [7]
  senolytic activity in screen: active

## CC1(C)CCC(CN2CCN(c3ccc(C(=O)NS(=O)(=O)c4ccc(NCC5CCOCC5)c([N+](=O)[O-])c4)c(Oc4cnc5[nH]ccc5c4)c3)CC2)=C(c2ccc(Cl)cc2)C1 [ABT-199]
Primary human T-cells
  T-cell death: substantial cell death
  pIC50: ~6.00

## Triton X-100 [reference compound]
Human red blood cells; concentrations ≥0.01% (w/w), positive control
  hemolysis: substantial hemolysis

## COc1ccc(NC(=O)CSc2nc3ccc(NC(=O)c4cccc(F)c4)cc3s2)cc1 [compound 48]
[3]
  Therapeutic Index (TI): ++ (compounds with a TI of 1 to 5 were labelled as ++)

## COc1ccc(NC(=O)CSc2nc3ccc(NC(=O)c4ccc(Cl)cc4)cc3s2)cc1 [compound 111]
[3]
  Therapeutic Index (TI): ++ (compounds with a TI of 1 to 5 were labelled as ++)

## CCOc1ccc(NC(=O)C(C)Sc2nc3ccc(NC(=O)c4ccccc4)cc3s2)cc1 (stereo not shown) [compound 38]
[3]
  Therapeutic Index (TI): ++ (compounds with a TI of 1 to 5 were labelled as ++)

## CCCCOc1ccc(NC(=O)CSc2nc3ccc(NC(=O)c4ccc(OCCCC)cc4)cc3s2)cc1 [compound 86]
[3]
  Therapeutic Index (TI): ++ (compounds with a TI of 1 to 5 were labelled as ++)

## O=C(CSc1nc2ccc(NC(=O)c3ccc(CO)c(F)c3)cc2s1)Nc1ccc(F)cc1 [compound 171]
[3]
  Therapeutic Index (TI): +++ (compounds with a TI of >5 were labeled as +++)

## COc1ccccc1C(=O)Nc1ccc2nc(SCC(=O)Nc3ccccc3)sc2c1 [compound 104]
[3]
  Therapeutic Index (TI): ++ (compounds with a TI of 1 to 5 were labelled as ++)

## Cc1ccccc1C(=O)Nc1ccc2nc(SCC(=O)Nc3ccc([N+](=O)[O-])cc3)sc2c1 [compound 73]
[3]
  Therapeutic Index (TI): ++ (compounds with a TI of 1 to 5 were labelled as ++)

## CCOc1ccc(NC(=O)CSc2nc3ccc(NC(=O)c4ccccc4C)cc3s2)cc1 [compound 1]
Mcl-1
  pIC50: < 4.00
[5]
  pIC50: < 4.00
Ex vivo human skin; 5% topical ointment in 10% DMSO: 45% PEG300:45% water, older and younger subject skin
  safety in ex vivo skin: No adverse effects
Ex vivo human skin; 5 days of topical application, older subject skin, three samples
  average decrease in p16 mRNA expression compared to vehicle: approximately 40%
[6]; 10% solution in DMSO topically and about 100 μg/mL in culture medium
  safety in wounded ex vivo skin: no adverse effects
[6]; [8]
  average decrease in Col1a1 RNA expression inside wound compared to vehicle: ~60%
  average decrease in MMP9 RNA expression inside wound compared to vehicle: ~60%
  average decrease in p16 RNA expression inside wound compared to vehicle: ~30%

## COc1cccc(NC(=O)CSc2nc3ccc(NC(=O)c4ccccc4C)cc3s2)c1 [compound 158]
[3]
  Therapeutic Index (TI): + (Compounds with a TI of <1 were labelled as +)
